We go through 12 molecules from US8278469B2, “17-hydroxy-17-pentafluoroethyl-estra-4,9(10)-dien-11-aryl derivatives, method of production thereof and use thereof for the treatment of diseases” (Bayer Pharma Aktiengesellschaft, priority 2009, dated 2012).

The target in test [1] is T1, human progesterone receptor B (PR-B) (Homo sapiens, UniProt P06401).
T1 construct: expressed in transfected cells; host or cells: SK-N-MC human neuroblastoma cells, stably transfected with pRChPR-B-neo and pMMTV-LUC
T1 sequence (P06401 1-933): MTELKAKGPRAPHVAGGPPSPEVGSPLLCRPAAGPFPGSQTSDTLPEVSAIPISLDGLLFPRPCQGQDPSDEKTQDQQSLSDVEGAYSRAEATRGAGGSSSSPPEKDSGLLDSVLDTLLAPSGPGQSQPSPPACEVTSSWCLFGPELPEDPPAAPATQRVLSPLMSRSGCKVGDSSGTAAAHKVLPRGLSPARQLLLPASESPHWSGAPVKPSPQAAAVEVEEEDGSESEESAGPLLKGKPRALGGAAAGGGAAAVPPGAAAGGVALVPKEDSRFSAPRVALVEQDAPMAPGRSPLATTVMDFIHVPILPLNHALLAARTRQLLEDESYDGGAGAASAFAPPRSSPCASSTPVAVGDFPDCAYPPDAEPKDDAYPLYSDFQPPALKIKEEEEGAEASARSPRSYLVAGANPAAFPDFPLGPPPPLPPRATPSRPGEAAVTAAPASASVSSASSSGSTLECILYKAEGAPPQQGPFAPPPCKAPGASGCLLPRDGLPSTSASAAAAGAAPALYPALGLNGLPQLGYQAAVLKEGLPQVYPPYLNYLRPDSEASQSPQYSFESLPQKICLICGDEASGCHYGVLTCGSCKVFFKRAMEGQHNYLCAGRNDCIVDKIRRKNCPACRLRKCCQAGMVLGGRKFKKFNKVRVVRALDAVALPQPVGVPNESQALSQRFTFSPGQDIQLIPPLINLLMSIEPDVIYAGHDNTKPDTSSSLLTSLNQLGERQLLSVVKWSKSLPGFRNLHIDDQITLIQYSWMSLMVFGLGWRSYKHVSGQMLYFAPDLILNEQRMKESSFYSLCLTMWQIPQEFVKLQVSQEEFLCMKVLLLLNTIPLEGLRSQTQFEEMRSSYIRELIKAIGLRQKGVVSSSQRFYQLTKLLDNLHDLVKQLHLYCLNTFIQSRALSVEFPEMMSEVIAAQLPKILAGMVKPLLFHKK
Kind of test: Progesterone receptor-antagonistic action in stable transfectants of SK-N-MC cells with human PR-B and MTV-LUC reporter. The conditions noted are these: for Emax: read-out: Progesterone receptor B (PR-B) Efficacy. It counts as cell-based. The method, then: (§1) Progesterone Receptor-Antagonistic Action in Stable Transfectants of Human Neuroblastoma Cells (SK-N-MC Cells) with the Human Progesterone A or Progesterone B Receptor and an MTV-LUC Reporter Construct
(§2) SK-N-MC cells (human neuroblastoma cells), which have been stably transfected with plasmids, which express the human progesterone receptor B (pRChPR-B-neo) or the human progesterone receptor A (pRChPR-A-neo) and a reporter construct (pMMTV-LUC), were incubated for 24 hours either in the absence (negative control) or in the presence of increasing amounts of the respective test compound (0.01 nmol/l, 0.1 nmol/l, 1 nmol/l, 10 nmol/l, 100 nmol/l and 1 μmol/l), in order to determine the agonistic efficacy. As positive control of reporter gene induction, the cells were treated with the synthetic gestagen promegestone (0.01 nmol/l, 0.1 nmol/l, 1 nmol/l, 10 nmol/l, 100 nmol/l and 1 μmol/l). For determination of the antagonistic activity, the cells were treated with 0.1 nmol/l promegestone and additionally with increasing amounts of the respective test compound (0.01 nmol/l, 0.1 nmol/l, 1 nmol/l, 10 nmol/l, 100 nmol/l and 1 μmol/l). The activity of the LUC reporter gene (LUC=luciferase) was determined in the cell lysates and was measured as RLU (relative light units). All measured values are given as percentage efficacy and as EC50 or IC50 concentrations.
(§3) 11β-(4-Acetylphenyl)-20,20,21,21,21-pentafluoro-17-hydroxy-19-nor-17α-pregna-4,9-dien-3-one and 20,20,21,21,21-pentafluoro-17-hydroxy-11β-[4-(hydroxyacetyl)phenyl]-19-nor-17α-pregna-4,9-dien-3-one, very potent and therefore preferred examples from WO98/34947 and WO2008/058767, were tested as comparative compounds along with the test compound.

The target of test [2] is T2, human progesterone receptor A (PR-A) (Homo sapiens, UniProt P06401).
T2 construct: expressed in transfected cells; host or cells: SK-N-MC human neuroblastoma cells, stably transfected with pRChPR-A-neo and pMMTV-LUC
T2 sequence (P06401 1-769 isoform P06401-2): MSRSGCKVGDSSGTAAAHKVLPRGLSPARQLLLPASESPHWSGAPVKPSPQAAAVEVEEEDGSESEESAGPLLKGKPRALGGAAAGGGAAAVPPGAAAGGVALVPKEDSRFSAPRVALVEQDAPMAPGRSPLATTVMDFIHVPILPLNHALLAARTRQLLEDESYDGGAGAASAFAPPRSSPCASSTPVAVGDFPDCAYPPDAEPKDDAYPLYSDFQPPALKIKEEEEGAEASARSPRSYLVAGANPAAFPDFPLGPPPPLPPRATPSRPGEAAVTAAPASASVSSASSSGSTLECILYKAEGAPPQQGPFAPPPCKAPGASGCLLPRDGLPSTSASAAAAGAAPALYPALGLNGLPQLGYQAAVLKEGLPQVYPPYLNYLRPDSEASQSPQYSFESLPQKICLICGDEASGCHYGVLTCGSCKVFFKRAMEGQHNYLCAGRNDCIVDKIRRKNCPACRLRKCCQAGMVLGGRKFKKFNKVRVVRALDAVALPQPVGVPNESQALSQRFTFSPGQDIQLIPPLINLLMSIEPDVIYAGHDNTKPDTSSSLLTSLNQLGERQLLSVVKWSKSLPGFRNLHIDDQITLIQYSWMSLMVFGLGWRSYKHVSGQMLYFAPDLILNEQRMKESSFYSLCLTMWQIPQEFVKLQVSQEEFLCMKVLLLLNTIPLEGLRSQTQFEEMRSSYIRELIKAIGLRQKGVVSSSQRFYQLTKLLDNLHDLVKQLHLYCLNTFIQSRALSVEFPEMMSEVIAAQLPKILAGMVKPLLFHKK
Kind of test: Progesterone receptor-antagonistic action in stable transfectants of SK-N-MC cells with human PR-A and MTV-LUC reporter. It counts as cell-based. To be noted: for Emax: read-out: Progesterone receptor A (PR-A) Efficacy. The method, then:
as §1, §2, §3

Setting [3] is: antagonistic activity against 0.1 nmol/l promegestone, SK-N-MC cells, 24 hours, LUC reporter, read-out: Progesterone receptor B (PR-B) Potency IC50.
Setting [4] is: antagonistic activity against 0.1 nmol/l promegestone, SK-N-MC cells, 24 hours, LUC reporter, read-out: Progesterone receptor A (PR-A) Potency IC50.
The mark [5] stands for this setting: antagonistic efficacy against 0.1 nmol/l promegestone, SK-N-MC cells, 24 hours.

Like-named read-outs stand apart in the source and are kept apart here.

Turning to `C[S+]([O-])c1ccc([C@H]2C[C@@]3(C)[C@@H](CC[C@@]3(O)C(F)(F)C(F)(F)F)[C@@H]3CCC4=CC(=O)CCC4=C32)cc1` (mixture of isomers) [Example 3, (11β,17β)-17-Hydroxy-11-{4-[(RS)-methylsulphinyl]phenyl}-17-(pentafluoroethyl)estra-4,9-dien-3-one], the Emax in test [1] (SK-N-MC, 24 h) was 100%; in test [2] (SK-N-MC, 24 h), 100%. In addition, the IC50 in test [1] (setting [3]) came to 120 pM; in test [2] (setting [4]), 110 pM.

`Cc1ccc(S(=O)(=O)N=S(C)(=O)c2ccc([C@H]3C[C@@]4(C)C(CC[C@@]4(O)C(F)(F)C(F)(F)F)C4CCC5=CC(=O)CCC5=C43)cc2)cc1` (mixture of isomers) [Example 7, N-[{4-[(11β,17β)-17-hydroxy-3-oxo-17-(pentafluoroethyl)estra-4,9-dien-11-yl]phenyl}(RS)(methyl)oxido-λ^6-sulphanylidene]-4-methylbenzene sulphonamide]: the IC50 turned out to be 800 pM in test [1] and 1000 pM in test [2]. Further, the Emax in test [1] (setting [5]) and in test [2] (setting [5]) was 100% throughout.

Turning to `Cc1ccc(S(=O)(=O)N=S(C)(=O)c2ccc(-c3ccc([C@H]4C[C@@]5(C)C(CC[C@@]5(O)C(F)(F)C(F)(F)F)C5CCC6=CC(=O)CCC6=C54)cc3)cc2)cc1` (mixture of isomers) [Example 11, N-[{4′-[(11β,17β)-17-hydroxy-3-oxo-17-(pentafluoroethyl)estra-4,9-dien-11-yl]biphenyl-4-yl}(RS)(methyl)oxido-λ^6-sulphanylidene]-4-methylbenzene sulphonamide], the IC50 in test [1] (setting [3]) and in test [2] (setting [4]) was 10 pM each time. Besides, the Emax in test [1] (setting [5]) and in test [2] (setting [5]) was 100% throughout.

For `CC(=O)c1ccc(C2CC3(C)C(CCC3(O)C(F)(F)C(F)(F)F)C3CCC4=CC(=O)CCC4=C23)cc1` (stereo not drawn) [11β-(4-Acetylphenyl)-20,20,21,21,21-pentafluoro-17-hydroxy-19-nor-17α-pregna-4,9-dien-3-one, reference compound], the Emax in test [1] (setting [5]) and in test [2] (setting [5]) was 100% throughout.

Take `C[C@]12C[C@H](c3ccc(C(=O)CO)cc3)C3=C4CCC(=O)C=C4CC[C@H]3[C@@H]1CC[C@@]2(O)C(F)(F)C(F)(F)F` [20,20,21,21,21-pentafluoro-17-hydroxy-11β-[4-(hydroxyacetyl)phenyl]-19-nor-17α-pregna-4,9-dien-3-one, reference compound]: the Emax in test [1] (SK-N-MC, 24 h) worked out at 100%; in test [2] (SK-N-MC, 24 h), 100%.

As for `CSc1ccc([C@H]2C[C@@]3(C)[C@@H](CC[C@@]3(O)C(F)(F)C(F)(F)F)[C@@H]3CCC4=CC(=O)CCC4=C32)cc1` [Example 1, (11β,17β)-17-hydroxy-11-[4-(methylsulphanyl)phenyl]-17-(pentafluoroethyl)estra-4,9-dien-3-one], the Emax in test [1] (SK-N-MC, 24 h) came out at 100%; in test [2] (SK-N-MC, 24 h), 100%. The IC50 in test [1] (setting [3]) stood at 12 pM.

Regarding `CCSc1ccc([C@H]2C[C@@]3(C)C(CC[C@@]3(O)C(F)(F)C(F)(F)F)C3CCC4=CC(=O)CCC4=C32)cc1` (stereo partly drawn) [Example 2, (11β,17β)-11-[4-(ethylsulphanyl)phenyl]-17-hydroxy-17-(pentafluoroethyl)estra-4,9-dien-3-one], the Emax in test [1] (setting [5]) and in test [2] (setting [5]) was 100% throughout.

`CCS(=O)(=O)c1ccc([C@H]2C[C@@]3(C)C(CC[C@@]3(O)C(F)(F)C(F)(F)F)C3CCC4=CC(=O)CCC4=C32)cc1` (stereo partly drawn) [Example 5, (11β,17β)-11-[4-(ethylsulphonyl)phenyl]-17-hydroxy-17-(pentafluoroethyl)estra-4,9-dien-3-one]: the IC50 turned out to be 90 pM in test [1] (setting [3]) and 100 pM in test [2] (setting [4]). Moreover, the Emax in test [1] (setting [5]) and in test [2] (setting [5]) was 100% in each case.

As for `C[C@]12C[C@H](c3ccc(SCc4ccccc4)cc3)C3=C4CCC(=O)C=C4CCC3C1CC[C@@]2(O)C(F)(F)C(F)(F)F` (stereo partly drawn) [Example 6, (11β,17β)-11-[4-(benzylsulphanyl)phenyl]-17-hydroxy-17-(pentafluoroethyl)estra-4,9-dien-3-one], the figures for the IC50 in test [1] (setting [3]) and in test [2] (setting [4]) were 230 pM and 200 pM, respectively. Besides, the Emax in test [1] (setting [5]) and in test [2] (setting [5]) was 100% throughout.

As to `C[C@]12C[C@H](c3ccc(S(C)(=N)=O)cc3)C3=C4CCC(=O)C=C4CCC3C1CC[C@@]2(O)C(F)(F)C(F)(F)F` (stereo partly drawn) [Example 8, (11β,17β)-17-Hydroxy-11-[4-(RS-methylsulphonimidoyl)phenyl]-17-(pentafluoroethyl)estra-4,9-dien-3-one], the Emax in test [1] (SK-N-MC, 24 h) came out at 100%; in test [2] (SK-N-MC, 24 h) it was 100%. Also, the IC50 in test [1] (setting [3]) and in test [2] (setting [4]) was 900 pM in each case.

Turning to `CSc1ccc(-c2ccc([C@H]3C[C@@]4(C)[C@@H](CC[C@@]4(O)C(F)(F)C(F)(F)F)[C@@H]4CCC5=CC(=O)CCC5=C43)cc2)cc1` [Example 9, (11β,17β)-17-Hydroxy-11-[4′-(methylsulphanyl)biphenyl-4-yl]-17-(pentafluoroethyl)estra-4,9-dien-3-one], the Emax in test [1] (setting [5]) and in test [2] (setting [5]) was 100% each time.

Regarding `C[C@]12C[C@H](c3ccc(-c4ccc(S(C)(=N)=O)cc4)cc3)C3=C4CCC(=O)C=C4CCC3C1CC[C@@]2(O)C(F)(F)C(F)(F)F` (stereo partly drawn) [Example 12, (11β,17β)-17-hydroxy-11-[4′-(RS-methylsulphonimidoyl)biphenyl-4-yl]-17-(pentafluoroethyl)estra-4,9-dien-3-one], the IC50 in test [1] (setting [3]) and in test [2] (setting [4]) was 80 pM each time. In addition, the Emax in test [1] (setting [5]) and in test [2] (setting [5]) was 100% throughout.
